# ± gives the expanded uncertainty stated by the source.
# How the values were obtained:
# [1] = Crystal; for mass density: 298 K, 101.33 kPa, Pycnometric method; for Triple point temperature: DTA
# [2] = Molar enthalpy of transition or fusion; details: Crystal; DSC
# [3] = molar heat capacity at constant pressure; details: 298 K; 101.33 kPa; Crystal; Small sample (50 mg) DSC
mass density [1] [kg/m3],Triple point temperature [1] [K],Molar enthalpy of transition or fusion [2] [kcal/mol],molar heat capacity at constant pressure [3] [J/K/mol],SMILES
1170 ± 10,371.47 ± 0.39,5.76 ± 0.198,222.5 ± 4.5,CC(C)c1ccc2occ(C=O)c(=O)c2c1 [3-formyl-6-isopropylchromone]
1470 ± 10,444.45 ± 0.39,6.41 ± 0.189,178.96 ± 3.6,Cc1ccc2occ(C=O)c(=O)c2c1 [3-formyl-6-methylchromone]
1700 ± 10,424.89 ± 0.39,6.06 ± 0.136,121.04 ± 2.4,O=Cc1coc2ccccc2c1=O [3-formylchromone]

# — the NIST ThermoML archive (doi:10.1016/j.tca.2006.07.010)
